Measurements from paper PMC4552634, “A New Set of Chemical Starting Points with Plasmodium falciparum Transmission-Blocking Potential for Antimalarial Drug Discovery” (PLoS ONE, 2015).
Read-outs that look alike come from different tables or passages of the source.

Columns and labels:
[1] = test system: P. falciparum asexual stages; details: cited from earlier work
[2] = test system: mature P. falciparum NF54 gametocytes (male gametocyte exflagellation); assay: Exflagellation assay; type: cell-based, Plasmodium falciparum; details: for % Exflagellation inh. at the IC90: 48 h, concentration = IC90, Fig 7; for % Inhibition exflagellation: 48 h post-treatment at the IC90 of the ATP assay, normalized to control, Fig 6
Procedure: The exflagellation assay was performed as described by Delves et al., with some modifications. Briefly, 200 μL samples of mature P. falciparum NF54 gametocytes culture in the presence of the corresponding test compound were incubated at 37°C for 48 h in an atmosphere of 5% CO2, 5% O2, 90% N2 in 1.5 mL microfuge tubes. After the incubation period, cells were settled down and medium was carefully removed. The cell pellets were resuspended in 15 μl of complete ookinete medium (RPMI medium with 25 mM HEPES, 50 mg/L hypoxanthine, 2 g/L sodium bicarbonate, 100 μM xanthurenic acid, 20% human serum) pre-warmed at 37°C. Once parasites were resuspended in ookinete medium, they were introduced in a chamber of a FastRead disposable hemocytometer slide and placed on a horizontal surface at room temperature (21°C), to allow cells to homogeneously settle, forming a tight monolayer.

[3] = test system: P. falciparum NF54 gametocytes fed to An. stephensi mosquitoes; assay: Standard membrane feeding assay (SMFA); type: in vivo, Plasmodium falciparum; details: for Infection Prevalence (%): An. stephensi fed gametocytes treated 48 h at the IC90, Fig 6, one of two independent experiments, control 94%; for % Prevalence of infection / % Reduction oocysts SMFA / Block in Transmission (%) / Reduction in Oocyst (%): gametocytes treated 48 h at the IC90; for % Prevalence of infection / % Reduction oocysts SMFA: Fig 7; for Block in Transmission (%) / Reduction in Oocyst (%): normalized to DMSO control, Fig 6; for Reduction in Oocyst (%): mean oocyst intensity
Procedure: Gametocyte cultures of the P. falciparum NF54 strain, kindly provided by Robert Sinden (Imperial College London), were induced at 0.5% asexual parasitemia and 4% hematocrit (RBCs from the Spanish Red Cross) at 40 mL final volume in T75 flasks. Gametocyte production media comprised RPMI 1640 (Sigma, #R5886), 30 mM bicarbonate (Sigma-Aldrich, #S5761) and 5 mM hypoxanthine (Gibco, #11067–030). Media were made complete with 5% human serum A^+ (Interstate Blood Bank, USA) and 5% AlbuMAX II (Gibco, #11021–037). Cultures were maintained in a gassed incubator at 37°C with 5% CO2, 5% O2, 90% N2 for 14–17 days post-induction, with daily medium replacement without the addition of fresh RBCs. Percentages of mature gametocytes were assessed by microscopic counts (Leica, DM2000) of Giemsa-stained thin blood smears, and functional microgametocytes were assessed for exflagellation activity at room temperature. To test exflagellation, mature gametocyte cultures were centrifuged at 1800 rpm for one minute. The infected RBC pellet was gently mixed with an equal volume of pre-warmed human serum and introduced onto a slide with a coverslip, followed by incubation at room temperature for 10–15 min. The average exflagellation centers per field at 10X magnification was determined by the exflagellation assay described above. Gametocyte counts and exflagellation assays were performed both before and after gametocyte drug treatment (at the time of SMFA).
Two days before gametocyte treatment with compound, spent media was removed and fresh Gametocyte Treatment Medium consisting of RPMI1640 with L-glutamine and 25 mM HEPES (Gibco, #13018–031), 10 mM glucose (Sigma-Aldrich, #G8270), 20 mM bicarbonate (Sigma-Aldrich, #S5761) and 5 mM hypoxanthine (Gibco, #11067) was added. Media were made complete with 10% of human A^+ serum (Interstate Blood Bank). Five ml of mature gametocyte culture at day 15 post-induction was transferred into each well of a pre-warmed 6-well plate. The selected TCAMS compounds were prepared fresh as a stock solution of 10 mM in 100% of DMSO and added to the mature gametocytes at the concentrations described in Fig 7. Gametocytes were exposed to the compound for a total duration of 48 h. At 24 h post-drug exposure, a fixed volume (3 mL) of spent medium was removed and fresh medium was re-added, accompanied by compound replenishment to obtain the required final concentration. Untreated gametocytes with the same final concentration of DMSO (0.1%) as in treated gametocytes were processed in parallel.
On the day of the feed, cultures were centrifuged at 2500 g for 3 min at 37°C, diluted 1:1 with 100% packed cell volume of fresh RBCs, and finally formulated as artificial mosquito blood meals at 50% hematocrit with pre-warmed human serum. All steps were performed at 37°C. Prepared blood meals were fed in duplicate to 4–6 days old female An. stephensi mosquitoes for 30–40 min via Parafilm membrane attached to glass feeders (Fisher Scientific, #12831283) connected to a 37°C circulating water bath. Fed mosquitoes were maintained in an incubator at 27°C and 75% relative humidity with 12 h light/dark cycles. At 7–8 days post-feeding, mosquitoes with fully developed ovaries were dissected for midguts (Leica, M80) and incubated in 0.2% mercurochrome solution in distilled water for 10–15 min. The total number of oocysts in individual midguts was counted using a light microscope (Leica, DM2000) under a 10X objective (100X magnification). Both infection prevalence (percentage of mosquitoes with one or more oocysts) and mean oocyst intensity of infection were defined in each treatment. The percentage block in transmission and the percentage reduction in mean oocyst intensity were calculated after normalizing to the Control DMSO-treated sample.

[4] = Cytotoxicity in HepG2 cells (intracellular ATP, ATPlite, 48 h); type: cell-based, human; details: human, HepG2 cells
Procedure: (§1) Cells were grown and maintained in EMEM (Sigma-Aldrich) supplemented with 2mM L-glutamine (Sigma-Aldrich) and 10% fetal calf serum (Perbio). […] Passages were routinely made upon reaching 80–90% confluence. For cytotoxicity experiments, cells were seeded onto 96-well clear bottom black plates coated with type I collagen (Biocoat, Becton Dickinson) at a cell density of 20,000 cells/well.
(§2) To determine cytotoxic effects, represented by the Tox50 value (the concentration of drug that reduces cell viability by 50%), cells were exposed to serial dilutions of compounds for 48 h at 37°C. The assay medium was as previously described, but supplemented with 5% fetal calf serum instead of 10%. […] In the presence of ATP, luminescence is emitted as the reaction described earlier for the BacTiter-Glo kit. Percentages of inhibition were calculated relative to vehicle control wells.

[5] = test system: P. falciparum stage V gametocytes; assay: Gametocytocidal ATP bioluminescence assay (single point 5 μM and 1 μM, dose-response); type: cell-based, Plasmodium falciparum; details: for IC90: ATP assay, Fig 7, read-out: IC90 against gametocytes; for Ratio IC50 HepG2/IC50 P. falciparum: IC50 HepG2 divided by IC50 P. falciparum gametocytes
Procedure: Purified stage IV-V gametocytes were obtained as previously described [10]. Single point ATP bioluminescence assay and dose–response of positive hits was determined in accordance with the previously published protocol [10].

[6] = test system: luciferase reaction (BacTiter-Glo); assay: Interference assay (inhibition of the BacTiter-Glo luciferase reaction); type: biochemical; design: concentration or dose not given beside the values; details: ATP interference assay
Procedure: To discard possible false-positive results, we performed an interference assay in parallel. […] […]. The ATP solution was made by dissolving ATP powder (ATP standard from the ATPlite 1 step assay kit, reference 6016731, Perkin Elmer) in culture medium. The positive control used was the Luciferase Inhibitor I Calbiochem (Merck, 119113) at 100 μM.

HepG2 cells = assay: Cytotoxicity in HepG2 cells (intracellular ATP, ATPlite, 48 h); type: cell-based, human; details: for Ratio IC50 HepG2/IC50 P. falciparum: IC50 HepG2 divided by IC50 P. falciparum gametocytes
Procedure: as §1, §2

[7] = test system: P. falciparum stage V gametocytes; assay: microbe, parasite or virus in culture; design: BacTiter-Glo ATP luminescence viability of stage V gametocytes, 11-point dose-response IC50; details: Plasmodium falciparum, 48 h; sheet CSAanalogstable
Procedure: Once purified, gametocytes were counted using a Neubauer chamber, and the density was adjusted to 2.5 x 10^5 gametocytes/mL. Fifty μL of the gametocyte suspension (1.25 x 10^4 gametocytes) were added to each well of the 384-well plate containing the compounds, using a Multidrop combi (Thermo Electron Corporation). Plates were shaken for 5 sec to homogenize and then incubated at 37°C for 48 h in an atmosphere of 5% CO2, 5% O2, 90% N2. The ATP level of each well was determined using the BacTiter-Glo reagent (Promega) according to the recommendations of the manufacturer. The BacTiter-Glo assay generates a ‘glow-type’ luminescent signal produced by the luciferase reaction, which consists of mono-oxygenation of luciferin catalyzed by luciferase in the presence of Mg^2+, ATP and molecular oxygen. The luminescence was measured using a plate reader (Victor V, Perkin Elmer). […] The background value was subtracted from every other value of the assay prior to further calculation. The average of 16 replicates of vehicle control (0.5% or 0.1% DMSO) represents 100% of signal. Related to this value, each test concentration was calculated as percentage of control. […] However, there was no significant correlation between compound IC50 values obtained against gametocytes and the inhibition of growth of P. falciparum asexual forms as previously determined for TCAMS [6] […]

[8] = P. falciparum asexual stages, TCAMS data, read-out: IC50 (µM) Pf asexual stages
[9] = asexual stages, TCAMS data, read-out: IC50 asexual
[10] = IC50 per ratio column head, unit inferred, read-out: Cytotoxicity in HepG2
[11] = Plasmodium falciparum, P. falciparum gametocytes, average, read-out: IC50 Pf Gametocytes average, IC50 (µM) average
[12] = HepG2, 48 h exposure, intracellular ATP, read-out: IC50 (μM) Cytotoxicity HepG2
[13] = Plasmodium falciparum, sexual stages (gametocytes), dose-response, read-out: IC50 sexual

Row | Compound | IC50 [1, 8] [µM] | IC50 [1, 9] [µM] | % Exflagellation inh. at the IC90 [2] [%] | % Inhibition exflagellation [2] [%] | Infection Prevalence (%) [3] [%] | % Prevalence of infection [3] [%] | % Reduction oocysts SMFA [3] [%] | Block in Transmission (%) [3] [%] | Reduction in Oocyst (%) [3] [%] | IC50 at 48 h [4, 10] [µM] | IC90 ([5]; Plasmodium falciparum) [nM] | IC50 [5, 11] [µM] | % Control luminiscence [6] [%] | IC50 at 48 h [4, 12] [µM] | Ratio IC50 HepG2/IC50 P. falciparum (HepG2 cells) | Ratio IC50 HepG2/IC50 P. falciparum [5] | IC50 [5, 13] [µM] | also measured
1 | CNC(=S)NN=C(C)c1ccccn1 [TCMDC-123475] | 0.27 | 0.272 | 97.7 | 97.7 | 0 | 0 | 100 | 100 | 100 | > 25 | 10000 | 1.17 |  |  |  |  |  | 
2 | Cc1[nH]c2ccccc2c1C(=O)C(C)Sc1nnc(-c2ccccc2Br)[nH]1 (centres unmarked) [TCMDC-125114] | 0.0348 | 0.035 | 97 | 97.00 | 2 | 2 | 100 | 98 | 100 | 49.3 | 2500 | 0.67 | 99 | > 25 | 74 | 74 |  | IC50 ([1]; as previously determined for TCAMS, read-out: IC50 (μM) Pf Asexual stages): 0.03 µM
3 | COc1cccc(NC(=O)[C@H](C(C)C)n2c(=O)[nH]c3ccccc3c2=O)c1 [TCMDC-125133] | 0.27 | 0.266 | 88 | 88.00 | 3 | 3 | 100 | 97 | 100 | > 50 | 2500 | 0.54 | 100 | > 25 | >93 | >93 | 0.538 | 
4 | Cc1c(Cl)cccc1NC(=S)NN=Cc1ccccn1 [TCMDC-125487] | 0.6 | 0.603 | 98.3 | 98.30 | 0 | 1 | 100 | 100 | 100 | > 25 | 2000 | 0.27 |  |  |  |  |  | 
5 | CC(C)c1ccc(NC(=S)NN=Cc2ccccn2)cc1 [TCMDC-125520] | 0.72 | 0.724 |  |  |  |  |  |  |  | 12.8 |  | < 0.0098 |  | 13 | >1306 | >1306 |  | IC50 [7]: 9.8 nM
6 | CCC1CN2CCc3cc(OC)c(OC)cc3C2CC1CC1NCCc2cc(OC)c(OC)cc21 (centres unmarked) [TCMDC-125849] | 0.14 | 0.145 | 99.2 |  | 3 | 3 | 100 | 97 | 100 | 17.7 | 2000 |  |  | 18 |  |  | 0.117 | 
7 | CCC1=C(C[C@H]2NCCc3cc(OC)c(OC)cc32)C[C@H]2c3cc(OC)c(OC)cc3CCN2C1 [TCMDC-131825] | 0.31 | 0.312 |  |  |  |  |  |  |  |  |  |  |  |  | >83 | >83 |  | IC50 (HepG2 cells; HepG2 cells, IC50 per ratio column head, unit inferred): > 25 µM; IC50 ([5]; P. falciparum gametocytes, average, read-out: IC50 Pf Gametocytes average, IC50 (µM) average): 0.3 µM; IC50 [7]: 300 nM
8 | N=C(NCCCc1ccccc1)c1cccc(C(=N)NCCCc2ccccc2)n1 [TCMDC-137453] | 1.38 | 1.38 | 97.3 |  | 5 | 5 | 100 | 95 | 100 | 12.8 | 2000 | 0.31 | 100 | 13 | 41 | 41 | 0.313 | 
